What all share (assay type): biochemical
The target in one assay is T1, PI3Kβ (Homo sapiens, UniProt P42338).
T1 construct: purchased Millipore Ltd (Billerica, Mass.)
Kind of assay: In vitro determination of the PI3K enzyme inhibitory activity in the cell free assay (ADP-Glo Kinase Assay), PI3Kβ. Conditions: ATP 100 μM, read-out: PI3K beta inhibition. The method, boiled down: (§1)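 Human recombinant PI3K isoforms with PI/PS lipid substrates (50 μM in 2× buffer, Tris pH 7.5, DTT) were run 60 min at room temperature. Final ATP was 50 μM for α, 100 μM for β, 30 μM for γ and 80 μM for δ. ADP formation was read by ADP-Glo luminescence, and IC50 came from a four-parameter logistic fit.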

The next assay addresses T2, PI3Kγ (Homo sapiens, UniProt P48736).
T2 construct: purchased Millipore Ltd (Billerica, Mass.)
In words: In vitro determination of the PI3K enzyme inhibitory activity in the cell free assay (ADP-Glo Kinase Assay), PI3Kγ. Particulars: ATP 30 μM, read-out: PI3K gamma inhibition. The method, boiled down: as §1

For another assay, the target named is T3, PI3Kα (Homo sapiens, UniProt P42336).
T3 construct: purchased Millipore Ltd (Billerica, Mass.)
T3 sequence (P42336 whole entry): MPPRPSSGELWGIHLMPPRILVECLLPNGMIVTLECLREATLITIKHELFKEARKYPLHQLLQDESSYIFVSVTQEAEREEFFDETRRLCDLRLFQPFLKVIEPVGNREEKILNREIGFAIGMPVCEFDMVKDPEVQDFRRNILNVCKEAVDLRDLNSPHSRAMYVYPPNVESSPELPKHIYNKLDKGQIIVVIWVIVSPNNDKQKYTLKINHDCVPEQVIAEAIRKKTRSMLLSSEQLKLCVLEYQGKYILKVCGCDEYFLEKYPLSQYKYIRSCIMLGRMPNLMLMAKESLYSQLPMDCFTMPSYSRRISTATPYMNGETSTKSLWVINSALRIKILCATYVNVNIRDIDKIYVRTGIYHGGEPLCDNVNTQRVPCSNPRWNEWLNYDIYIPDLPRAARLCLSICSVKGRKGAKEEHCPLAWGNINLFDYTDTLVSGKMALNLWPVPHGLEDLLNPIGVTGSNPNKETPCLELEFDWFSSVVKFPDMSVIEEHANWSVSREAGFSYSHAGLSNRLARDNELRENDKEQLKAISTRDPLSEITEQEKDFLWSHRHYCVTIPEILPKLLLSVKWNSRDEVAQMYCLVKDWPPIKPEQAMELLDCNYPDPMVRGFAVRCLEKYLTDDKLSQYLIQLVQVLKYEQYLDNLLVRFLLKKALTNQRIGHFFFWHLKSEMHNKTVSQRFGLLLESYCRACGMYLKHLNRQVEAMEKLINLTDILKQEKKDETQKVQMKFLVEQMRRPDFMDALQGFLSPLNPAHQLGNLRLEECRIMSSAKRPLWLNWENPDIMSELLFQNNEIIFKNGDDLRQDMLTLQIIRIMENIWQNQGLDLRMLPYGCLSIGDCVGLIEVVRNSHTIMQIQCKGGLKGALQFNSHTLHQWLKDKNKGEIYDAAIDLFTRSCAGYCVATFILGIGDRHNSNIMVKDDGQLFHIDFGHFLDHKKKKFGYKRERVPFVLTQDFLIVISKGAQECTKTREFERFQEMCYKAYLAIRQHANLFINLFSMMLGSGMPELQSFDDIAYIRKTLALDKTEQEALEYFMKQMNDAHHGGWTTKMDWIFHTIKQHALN
T3 sequence (P27986 whole entry partner): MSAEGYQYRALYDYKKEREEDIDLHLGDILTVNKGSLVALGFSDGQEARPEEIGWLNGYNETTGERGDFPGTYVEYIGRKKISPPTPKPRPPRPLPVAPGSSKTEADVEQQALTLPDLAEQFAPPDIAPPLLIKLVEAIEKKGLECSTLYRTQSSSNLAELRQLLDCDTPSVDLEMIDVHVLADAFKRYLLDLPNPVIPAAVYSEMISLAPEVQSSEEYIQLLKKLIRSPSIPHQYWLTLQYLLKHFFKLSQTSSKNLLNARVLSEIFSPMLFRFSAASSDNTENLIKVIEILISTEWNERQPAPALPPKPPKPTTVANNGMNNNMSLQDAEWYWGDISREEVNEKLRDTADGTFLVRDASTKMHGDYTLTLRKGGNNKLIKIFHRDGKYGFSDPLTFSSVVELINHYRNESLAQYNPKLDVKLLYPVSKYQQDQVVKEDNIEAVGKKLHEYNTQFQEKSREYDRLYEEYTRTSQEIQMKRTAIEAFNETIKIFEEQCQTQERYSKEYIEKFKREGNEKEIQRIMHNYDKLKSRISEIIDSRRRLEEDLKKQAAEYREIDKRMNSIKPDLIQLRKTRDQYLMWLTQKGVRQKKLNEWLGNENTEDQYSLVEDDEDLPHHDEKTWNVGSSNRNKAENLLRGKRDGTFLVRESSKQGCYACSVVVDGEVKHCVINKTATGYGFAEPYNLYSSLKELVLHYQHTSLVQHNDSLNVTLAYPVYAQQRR
Kind of assay: In vitro determination of the PI3K enzyme inhibitory activity in the cell free assay (ADP-Glo Kinase Assay), PI3Kα. Conditions: ATP 50 μM, read-out: PI3K alpha inhibition. The method, boiled down:
as §1

The target of the next assay is T4, PI3Kδ (Homo sapiens, UniProt O00329).
T4 construct: purchased Millipore Ltd (Billerica, Mass.)
T4 sequence (O00329 whole entry): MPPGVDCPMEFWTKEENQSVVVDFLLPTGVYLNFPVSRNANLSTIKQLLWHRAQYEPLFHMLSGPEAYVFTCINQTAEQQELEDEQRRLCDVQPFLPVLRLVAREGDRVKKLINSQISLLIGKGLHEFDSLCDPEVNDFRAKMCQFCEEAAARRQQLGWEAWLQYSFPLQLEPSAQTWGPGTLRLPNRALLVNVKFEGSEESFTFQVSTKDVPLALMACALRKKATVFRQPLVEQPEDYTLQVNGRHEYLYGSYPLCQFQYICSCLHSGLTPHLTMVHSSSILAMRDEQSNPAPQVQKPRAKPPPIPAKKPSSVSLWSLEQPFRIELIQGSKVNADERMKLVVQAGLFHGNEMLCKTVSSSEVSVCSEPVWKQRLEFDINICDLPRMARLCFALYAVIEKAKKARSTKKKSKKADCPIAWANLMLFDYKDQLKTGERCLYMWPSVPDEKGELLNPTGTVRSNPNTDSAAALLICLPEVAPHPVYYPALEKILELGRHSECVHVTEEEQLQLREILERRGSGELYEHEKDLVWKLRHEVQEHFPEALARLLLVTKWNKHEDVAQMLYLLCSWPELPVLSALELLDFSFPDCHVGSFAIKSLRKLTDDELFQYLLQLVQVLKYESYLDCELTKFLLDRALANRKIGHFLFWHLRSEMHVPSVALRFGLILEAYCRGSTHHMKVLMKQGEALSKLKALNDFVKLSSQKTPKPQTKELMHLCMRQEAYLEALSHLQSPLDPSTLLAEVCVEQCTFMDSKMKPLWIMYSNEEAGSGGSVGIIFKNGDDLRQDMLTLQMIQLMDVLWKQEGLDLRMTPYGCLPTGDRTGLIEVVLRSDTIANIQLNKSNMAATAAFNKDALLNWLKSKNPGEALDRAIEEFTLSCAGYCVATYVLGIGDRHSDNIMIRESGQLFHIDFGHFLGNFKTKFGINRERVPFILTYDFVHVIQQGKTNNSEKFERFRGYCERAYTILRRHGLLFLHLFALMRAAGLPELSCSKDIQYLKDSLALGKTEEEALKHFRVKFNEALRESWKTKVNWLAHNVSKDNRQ
T4 sequence (P27986 whole entry partner): as the sequence (P27986 whole entry partner) above
In words: In vitro determination of the PI3K enzyme inhibitory activity in the cell free assay (ADP-Glo Kinase Assay), PI3Kδ. Particulars: ATP 80 μM, read-out: PI3K delta inhibition. The method, boiled down: as §1

T2 sequence (P48736 whole entry): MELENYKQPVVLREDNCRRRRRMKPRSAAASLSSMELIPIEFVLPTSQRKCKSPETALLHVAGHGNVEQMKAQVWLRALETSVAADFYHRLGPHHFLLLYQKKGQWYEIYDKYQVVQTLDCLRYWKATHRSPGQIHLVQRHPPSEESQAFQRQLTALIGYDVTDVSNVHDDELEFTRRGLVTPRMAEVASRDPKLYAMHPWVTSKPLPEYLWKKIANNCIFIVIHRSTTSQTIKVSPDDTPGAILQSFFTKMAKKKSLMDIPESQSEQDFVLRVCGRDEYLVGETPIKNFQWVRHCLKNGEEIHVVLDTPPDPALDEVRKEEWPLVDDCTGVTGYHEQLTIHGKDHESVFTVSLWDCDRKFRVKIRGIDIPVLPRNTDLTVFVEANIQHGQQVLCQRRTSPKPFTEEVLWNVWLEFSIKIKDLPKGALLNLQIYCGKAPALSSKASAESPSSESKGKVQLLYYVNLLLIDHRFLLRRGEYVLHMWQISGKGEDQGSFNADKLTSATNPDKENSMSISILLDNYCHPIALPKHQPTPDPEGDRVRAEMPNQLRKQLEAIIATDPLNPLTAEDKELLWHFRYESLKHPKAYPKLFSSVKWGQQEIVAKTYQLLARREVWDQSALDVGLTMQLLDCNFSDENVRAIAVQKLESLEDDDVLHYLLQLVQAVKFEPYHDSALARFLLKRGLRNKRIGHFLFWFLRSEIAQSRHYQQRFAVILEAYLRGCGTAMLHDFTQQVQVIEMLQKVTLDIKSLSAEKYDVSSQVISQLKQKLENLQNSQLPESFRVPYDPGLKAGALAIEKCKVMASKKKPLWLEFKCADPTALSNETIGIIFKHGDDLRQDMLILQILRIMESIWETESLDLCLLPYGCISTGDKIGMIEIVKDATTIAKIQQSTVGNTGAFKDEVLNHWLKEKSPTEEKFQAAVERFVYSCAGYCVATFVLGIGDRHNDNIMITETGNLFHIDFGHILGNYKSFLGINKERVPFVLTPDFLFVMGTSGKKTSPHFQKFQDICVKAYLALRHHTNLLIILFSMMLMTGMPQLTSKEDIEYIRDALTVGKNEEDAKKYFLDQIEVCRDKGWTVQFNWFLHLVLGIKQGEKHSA
T1 sequence (P42338 whole entry): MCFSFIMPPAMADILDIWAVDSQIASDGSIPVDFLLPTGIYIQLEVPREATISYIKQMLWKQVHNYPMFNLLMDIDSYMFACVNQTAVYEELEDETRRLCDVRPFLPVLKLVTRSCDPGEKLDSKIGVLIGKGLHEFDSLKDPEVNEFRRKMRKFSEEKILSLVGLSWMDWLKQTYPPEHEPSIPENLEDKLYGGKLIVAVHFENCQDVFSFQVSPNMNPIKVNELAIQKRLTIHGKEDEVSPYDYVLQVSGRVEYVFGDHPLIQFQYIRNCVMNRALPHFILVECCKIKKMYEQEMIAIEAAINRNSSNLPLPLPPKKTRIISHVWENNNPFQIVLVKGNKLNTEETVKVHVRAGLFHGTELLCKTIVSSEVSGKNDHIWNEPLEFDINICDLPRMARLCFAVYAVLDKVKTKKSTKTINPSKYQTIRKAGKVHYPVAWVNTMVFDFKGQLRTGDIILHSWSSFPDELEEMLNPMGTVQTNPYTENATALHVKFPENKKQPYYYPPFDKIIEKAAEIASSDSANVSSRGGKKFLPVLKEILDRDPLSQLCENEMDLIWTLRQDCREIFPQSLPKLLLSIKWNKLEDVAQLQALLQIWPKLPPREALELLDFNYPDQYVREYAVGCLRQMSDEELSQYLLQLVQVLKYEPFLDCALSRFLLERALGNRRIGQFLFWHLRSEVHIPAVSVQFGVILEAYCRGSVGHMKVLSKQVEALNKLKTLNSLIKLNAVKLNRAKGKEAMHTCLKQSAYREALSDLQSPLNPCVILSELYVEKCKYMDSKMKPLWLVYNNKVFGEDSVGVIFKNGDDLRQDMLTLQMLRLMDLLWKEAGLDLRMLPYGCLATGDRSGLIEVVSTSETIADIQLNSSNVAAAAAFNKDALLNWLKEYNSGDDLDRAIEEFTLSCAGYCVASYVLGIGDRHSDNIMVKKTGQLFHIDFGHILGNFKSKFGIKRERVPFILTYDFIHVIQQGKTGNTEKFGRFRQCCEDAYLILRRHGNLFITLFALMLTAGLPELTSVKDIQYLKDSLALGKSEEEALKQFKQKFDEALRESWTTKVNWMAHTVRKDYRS
T1 sequence (P27986 whole entry partner): as the sequence (P27986 whole entry partner) above

Take `CC(c1cc2ccccn2c1-c1ccc(CN(C)C)cn1)n1nc(-c2cc(O)cc(F)c2)c2c(N)ncnc21` (centres unmarked) [Example 109, 3-{4-amino-1-[1-(3-{5-[(dimethylamino)-methyl]pyridin-2-yl}indolizin-2-yl)ethyl]-1H-pyrazolo[3,4-d]pyrimidin-3-yl}-5-fluorophenol]: the IC50 is 0.01 to 1 µM on PI3Kβ, greater than 1 µM on PI3Kγ, greater than 1 µM at PI3Kα and 0.01 to 1 µM at PI3Kδ.

As for `CC(c1cc2ccccn2c1C1=CCNCC1)n1nc(-c2cc(O)cc(F)c2)c2c(N)ncnc21` (centres unmarked) [Example 101, 3-(4-amino-1-{1-[3-(1,2,3,6-tetrahydropyridin-4-yl)indolizin-2-yl]ethyl}-1H-pyrazolo[3,4-d]pyrimidin-3-yl)-5-fluorophenol], the IC50 is 0.01 to 1 µM on PI3Kβ, greater than 1 µM on PI3Kγ, greater than 1 µM on PI3Kα and 0.01 to 1 µM on PI3Kδ.

As for `Cc1cccc2cc(C(C)Nc3ncnc(N)c3C#N)c(-c3ccccn3)n12` (centres unmarked) [Example 40, 4-amino-6-({1-[5-methyl-3-(pyridin-2-yl)indolizin-2-yl]ethyl}amino)pyrimidine-5-carbonitrile], the IC50 at PI3Kβ was greater than 1 µM; on PI3Kγ, greater than 1 µM; on PI3Kα it was greater than 1 µM; at PI3Kδ it was less than 0.01 µM.

With `Nc1nccnc1C(=O)NCc1cn2ccccc2c1-c1ccccn1` [Example 55, 3-amino-N-{[1-(pyridin-2-yl)indolizin-2-yl]methyl}pyrazine-2-carboxamide], the IC50 on PI3Kβ, at PI3Kγ, on PI3Kα and at PI3Kδ was greater than 1 µM each time.

As for `CC(c1cc2ccccn2c1-c1ccccc1C#N)n1nc(-c2cc(O)cc(F)c2)c2c(N)ncnc21` (centres unmarked) [Example 123, 2-(2-{1-[4-amino-3-(3-fluoro-5-hydroxyphenyl)-1H-pyrazolo[3,4-d]pyrimidin-1-yl]-ethyl}indolizin-3-yl)benzonitrile], the IC50 on PI3Kβ was 0.01 to 1 µM; at PI3Kγ, greater than 1 µM; at PI3Kα, greater than 1 µM; on PI3Kδ, less than 0.01 µM.

As to `Nc1ncnc2c1c(-c1cc(O)cc(F)c1)nn2Cc1cc2ccccn2c1-c1cccnc1` [Example 98, 3-(4-amino-1-{[3-(pyridin-3-yl)indolizin-2-yl]methyl}-1H-pyrazolo[3,4-d]pyrimidin-3-yl)-5-fluorophenol], the IC50 on PI3Kβ, on PI3Kγ, at PI3Kα and on PI3Kδ was 0.01 to 1 µM in each case.

Take `Cc1ccccc1-c1c(Cn2cnc3c(N)ncnc32)cn2ccccc12` [Example 12, 9-{[1-(2-methylphenyl)indolizin-2-yl]methyl}-9H-purin-6-amine]: the IC50 at PI3Kβ, at PI3Kγ, on PI3Kα and at PI3Kδ was greater than 1 µM in each case.

In the case of `C[C@H](c1cc2ccccn2c1-c1ccc(CN(CCO)CCO)cn1)n1nc(-c2cc(O)cc(F)c2)c2c(N)ncnc21` (single isomer, unassigned) [Example 117b, 3-(4-amino-1-{1-[3-(5-{[bis(2-hydroxyethyl)amino]methyl}pyridin-2-yl)indolizin-2-yl]ethyl}-1H-pyrazolo[3,4-d]pyrimidin-3-yl)-5-fluorophenol], the IC50 is 0.01 to 1 µM on PI3Kβ, greater than 1 µM on PI3Kγ, 0.01 to 1 µM at PI3Kα and less than 0.01 µM at PI3Kδ.

As for `CC(c1cc2ccccn2c1-c1ccc(CN(C)C)cc1)n1nc(-c2cc(O)cc(F)c2)c2c(N)ncnc21` (centres unmarked) [Example 92, 3-{4-amino-1-[1-(3-{4-[(dimethylamino)methyl]phenyl}indolizin-2-yl)ethyl]-1H-pyrazolo[3,4-d]pyrimidin-3-yl}-5-fluorophenol], the IC50 at PI3Kβ was 0.01 to 1 µM; on PI3Kγ it was greater than 1 µM; on PI3Kα, greater than 1 µM; on PI3Kδ, 0.01 to 1 µM.

In the case of `Cc1cc(-c2c(C(C)n3nc(-c4cncc(O)c4)c4c(N)ncnc43)cc3ccccn23)ccn1` (centres unmarked) [Example 107, 5-(4-amino-1-{1-[3-(2-methylpyridin-4-yl)indolizin-2-yl]ethyl}-1H-pyrazolo[3,4-d]pyrimidin-3-yl)pyridin-3-ol], the IC50 is 0.01 to 1 µM at PI3Kβ, 0.01 to 1 µM on PI3Kγ, greater than 1 µM on PI3Kα and less than 0.01 µM on PI3Kδ.

With `CC(c1cc2ccccn2c1-c1ccn(CCN(CCO)CCO)n1)n1nc(-c2cc(O)cc(F)c2)c2c(N)ncnc21` (centres unmarked) [Example 149, 3-(4-amino-1-{1-[3-(1-{2-[bis(2-hydroxyethyl)amino]ethyl}-1H-pyrazol-3-yl)indolizin-2-yl]ethyl}-1H-pyrazolo[3,4-d]pyrimidin-3-yl)-5-fluorophenol], the IC50 is 0.01 to 1 µM on PI3Kβ, 0.01 to 1 µM on PI3Kγ, greater than 1 µM on PI3Kα and less than 0.01 µM on PI3Kδ.

With `CC(c1cc2ccccn2c1-c1ccc(OCCN2CCN(C)CC2)nn1)n1nc(-c2cc(O)cc(F)c2)c2c(N)ncnc21` (centres unmarked) [Example 137, 3-{4-amino-1-[1-(3-{6-[2-(4-methylpiperazin-1-yl)ethoxy]pyridazin-3-yl}indolizin-2-yl)-ethyl]-1H-pyrazolo[3,4-d]pyrimidin-3-yl}-5-fluorophenol], the IC50 on PI3Kβ was 0.01 to 1 µM; at PI3Kγ, greater than 1 µM; at PI3Kα it was greater than 1 µM; at PI3Kδ, less than 0.01 µM.

`CC(c1cc2ccccn2c1-c1ccccn1)n1nc(-c2cccc(S(N)(=O)=O)c2)c2c(N)ncnc21` (centres unmarked) [Example 73, 3-(4-amino-1-{1-[3-(pyridin-2-yl)indolizin-2-yl]ethyl}-1H-pyrazolo[3,4-d]pyrimidin-3-yl)benzene-1-sulfonamide]: the IC50 at PI3Kβ was greater than 1 µM; at PI3Kγ, greater than 1 µM; at PI3Kα, greater than 1 µM; on PI3Kδ, 0.01 to 1 µM.

In the case of `CC(Nc1ncnc(N)c1Br)c1cc2ccccn2c1-c1ccccn1` (centres unmarked) [Example 48, 5-bromo-4-N-{1-[3-(pyridin-2-yl)indolizin-2-yl]ethyl}pyrimidine-4,6-diamine], the IC50 at PI3Kβ is greater than 1 µM; on PI3Kγ it was greater than 1 µM; on PI3Kα it was greater than 1 µM; at PI3Kδ it was 0.01 to 1 µM.

For the molecule `CC(c1cc2ccccn2c1-c1ccn(CCN(C)C)n1)n1nc(-c2cc(O)cc(F)c2)c2c(N)ncnc21` (centres unmarked) [Example 147, 3-{4-amino-1-[1-(3-{1-[2-(dimethylamino)-ethyl]-1H-pyrazol-3-yl}indolizin-2-yl)-ethyl]-1H-pyrazolo[3,4-d]pyrimidin-3-yl}-5-fluorophenol], the IC50 at PI3Kβ was 0.01 to 1 µM; on PI3Kγ, greater than 1 µM; at PI3Kα it was 0.01 to 1 µM; on PI3Kδ it was less than 0.01 µM.

In the case of `CC(c1cc2ccccn2c1-c1ccccn1)n1nc(C#CCO)c2c(N)ncnc21` (centres unmarked) [Example 102, 3-(4-amino-1-{1-[3-(pyridin-2-yl)indolizin-2-yl]ethyl}-1H-pyrazolo[3,4-d]pyrimidin-3-yl)prop-2-yn-1-ol], the IC50 at PI3Kβ was greater than 1 µM; at PI3Kγ it was greater than 1 µM; on PI3Kα, greater than 1 µM; on PI3Kδ, 0.01 to 1 µM.

For the molecule `N#Cc1c(N)ncnc1NCc1cc2ccccn2c1-c1cccc(F)c1` [Example 24, 4-amino-6-({[3-(3-fluorophenyl)indolizin-2-yl]methyl}amino)pyrimidine-5-carbonitrile], the IC50 on PI3Kβ was greater than 1 µM; on PI3Kγ, greater than 1 µM; on PI3Kα, greater than 1 µM; at PI3Kδ, 0.01 to 1 µM.

For the origin of these results see patent US9527869B2, “Indolizine derivatives as phoshoinositide 3-kinases inhibitors” (CHIESI FARMACEUTICI S.P.A., priority 2014, dated 2016).
